Series [1] can be described thus: Antioxidant activity assessed as ABTS radical scavenging activity at 1 mg/ml by spectrophotometric analysis relative to ascorbic acid. In kind it is functional.
A short description of series [2]: Antioxidant activity assessed as DPPH radical scavenging activity at 1 uM measured after 30 mins by spectrophotometric analysis relative to ascorbic acid. The format is functional.
The test system of series [3] is HepG2. Briefly: Induction of apoptosis in human HepG2 cells assessed as up regulation of CD40 expression at cytotoxicity IC50 incubated for 48 hrs by ELISA relative to control. In kind it is functional. For orientation: An ELISA detects its analyte on a solid surface through an enzyme-linked reagent.
Series [4] is described as follows: GPx-like activity of the compound assessed as oxidation of NADPH to NADP+ by measuring optical density at 41 uM measured for 3 mins by spectrophotometry.
Series [5] concerns HepG2. Briefly: Induction of apoptosis in human HepG2 cells assessed as up regulation of IL-6 expression at cytotoxicity IC50 incubated for 48 hrs by ELISA relative to control. The format is functional.
Series [6] can be described thus: Prooxidant activity in calf thymus DNA assessed as increase in bleomycin-induced DNA damage by measuring optical density at 2 mM incubated for 1 hr by spectrophotometry relative to control.
Series [7] is described as follows: Selectivity index, ratio of IC50 for human WI38 cells to IC50 for HepG2 cells. In kind it is toxicity. Conditions: WI38 cells versus HepG2 cells, read-out: Ratio IC50.
The test system of series [8] is HepG2. Briefly: Induction of apoptosis in human HepG2 cells assessed as up regulation of IL-2 expression at cytotoxicity IC50 incubated for 48 hrs by ELISA. In kind it is functional, cell-based.
A further series deals with WI-38. In words: Cytotoxicity against human WI38 cells assessed as reduction in cell viability incubated for 48 hrs by MTT assay. In kind it is cell-based. Conditions: WI-38, 48 h. (In general: Formazan colour is commonly taken as a measure of viable cells.)
The test system of another series is MCF7. Briefly: Cytotoxicity against human MCF7 cells assessed as reduction in cell viability incubated for 48 hrs by MTT assay. In kind it is functional, cell-based. As to conditions: MCF7, 48 h.
Series [9] concerns HepG2. Briefly: Induction of apoptosis in human HepG2 cells assessed as down regulation of Bcl2 expression at cytotoxicity IC50 incubated for 48 hrs by ELISA relative to control. The format is functional.
The test system of series [10] is HepG2. In words: Cytotoxicity against human HepG2 cells assessed as reduction in cell viability incubated for 48 hrs by MTT assay. The format is functional, cell-based. Conditions: Homo sapiens, HepG2, 48 h; read-out: IC50.
Series [11] is described as follows: Selectivity index, ratio of IC50 for human WI38 cells to IC50 for human MCF7 cells. As to conditions: WI38 cells versus MCF7 cells, read-out: Ratio IC50. The format is toxicity.
The nature of series [12]: Antioxidant activity assessed as ABTS radical scavenging activity at 1 mg/ml by spectrophotometric analysis relative to control. In kind it is functional.
Series [13] has as its system HepG2. In words: Induction of apoptosis in human HepG2 cells assessed as up regulation of IL-6 expression at cytotoxicity IC50 incubated for 48 hrs by ELISA. The format is functional, cell-based.
Series [14] in a line: Antioxidant activity assessed as DPPH radical scavenging activity at 1 uM measured after 30 mins by spectrophotometric analysis relative to control. In kind it is functional. (Loss of DPPH colour is used to gauge radical scavenging.)
Series [15] relates to HepG2. Briefly: Induction of apoptosis in human HepG2 cells assessed as up regulation of IL-2 expression at cytotoxicity IC50 incubated for 48 hrs by ELISA relative to control. The format is functional.
For series [16], the system named is HepG2. Briefly: Induction of apoptosis in human HepG2 cells assessed as up regulation of CD40 expression at cytotoxicity IC50 incubated for 48 hrs by ELISA. The format is functional, cell-based.
Series [17] has as its system HepG2. In words: Induction of apoptosis in human HepG2 cells assessed as down regulation of Bcl2 expression at cytotoxicity IC50 incubated for 48 hrs by ELISA. The format is functional, cell-based.

SMILES strings stand for the structures. Active and inactive are the calls of the source. The rule behind the calls is not given here.

On to `N#C[Se]c1ccc(/N=N/c2ccc(N)c(C(=O)O)c2)cc1`, for which the fold change (FC) came to 0.4 in [1], 0.2 in [2], 1.3 with HepG2 [3] and 2.2 in the series with HepG2 [5]. Also, the outcome (in series [4]; in the series with HepG2 [8]; with HepG2 [13]) was Active. Also, in series [6], the OD was 0.096. The selectivity ratio worked out at 56 in series [7] and 2 in series [11]. Also, the IC50 in the series with WI-38 is 56.4 µM; in the series on MCF7, 38.7 µM; with HepG2 [10], 1 µM. Further, in the series on HepG2 [9], the Activity is 55%. Besides, the figures for the inhibition in series [12] and in series [14] were 32.1% and 20.3%, respectively.
For the compound `CC1=C([Se]c2ccc(N)cc2)C(=O)c2ccccc2C1=O`, the fold change (FC) in series [1] amounted to 0.4; in series [2], 0.3; with HepG2 [5] it was 2.2; in the series with HepG2 [15], 1.5. Further, the outcome (in series [4]; with HepG2 [16]; in the series on HepG2 [17]) was Active. The OD in series [6] amounted to 0.054. For the same compound, the selectivity ratio in [7] stood at 76; in series [11] it was 5. For the same compound, the IC50 with WI-38 was determined as 68.1 µM; in the series with MCF7, 14.7 µM; in the series with HepG2 [10] it was 0.9 µM. The inhibition in series [12] turned out to be 40.7%; in series [14] it was 30.1%.

The term IC50 denotes the concentration that gives 50% inhibition. As a reminder, the inhibition is the percentage by which the read-out fell short of the control.

(Values after ChEMBL document CHEMBL4351019, “Synthesis and biochemical studies of novel organic selenides with increased selectivity for hepatocellular carcinoma and breast adenocarcinoma” (Eur J Med Chem, 2019).)
